Laboratory results published in patent US20230000827A1, “INHIBITORS OF HSP70 PROTEIN” (INSERM (INSTITUTE NATIONAL DE LA SANTÉ ET DE LA RECHERCHE …, priority 2019, published 2023).

Columns and labels:
Solubility (statement) = format: physicochemical
[1] = system: Human cervix cancer Hela cells; assay: Chemo-sensitization to cisplatin, cell survival colorimetric assay, HeLa; format: cell-based; settings: molecule 2 μM with cisplatin 25 μM, 48 h
Method: (§1) FIG. 3. The chemical molecule hits sensitize cancer cells to cisplatin. A) Human cervix HeLa or B) mouse colorectal cancer CT-26 cells were incubated during 48 h with cisplatin (25 μM) in the presence of absence of molecules A, B and C (2 μM). Cell survival was measured by a colorimetric assay staining.
(§2) 3.5×10^4 adherent cells were plated onto 24-well culture plates in complete medium. Cells were treated with small molecules at various concentrations (1 μM to 30 μM) for 4 hours to determine cellular IC50. Then, cells of half of each 24-well culture plates were treated with cisplatin (CDDP, 25 μM) for 48 hours. Cell death was measured by the crystal violet colorimetric assay staining.
(§3) To study the effect of the molecules in cancer cells, the inventors used two different cancer cells lines: Human cervix cancer Hela cells and mouse colorectal cancer CT-26. Cells were treated with the small molecule hit (2 μM) either alone or together with cisplatin for 48 hours and cell survival was determined. […] Cells seem to die mainly by apoptosis, as detected by the amount of Annexin V positive/propidium iodide negative cells obtained after treatment with the molecule (FIG. 5). The inventors conclude that the hit candidates block HSP70 chaperone activity and sensitize cancer cells to apoptosis induced by cisplatin.

[2] = system: mouse colorectal cancer CT-26; assay: Chemo-sensitization to cisplatin, cell survival colorimetric assay, CT-26; format: cell-based; settings: CT-26, molecule 2 μM with cisplatin 25 μM, 48 h
Method: as §1, §2, §3

HSP70/A18 interaction [3] = molecular target: T1, HSP70/A18 interaction (Homo sapiens, UniProt P0DMV8); assay: AptaScreen high-throughput yeast two-hybrid dual luminescence screening of A18/HSP70 association; format: cell-based; settings: for IC50: dose-response, inhibition of A18 binding to HSP70; for Confirmation inhibition: hit confirmation; for inhibition at 10 µM: molecules screened at 10 μM
T1 construct: expressed in transfected cells
Method: Table 1. High throughput screening of chemical agonists of the A18 peptide aptamer. The screening was based on the ability of the molecules to inhibit the association A18/HSP70.
A high-throughput screening assay, AptaScreen™ (developed by Aptanomics SA; (Baines I C et al. Drug Discov Today. 2006;11:334-341; Rerole A L, et al. Cancer Res 20119;71:484-495)) was performed by the Company Imaxio (Lyon, France) on a library of almost 60,000 small molecules. The AptaScreen™ assay is based on an automated dual luminescence (luc and ruc reporter genes) yeast two-hybrid assay, with HSP70 expressed as a ‘bait’ and A18 aptamer expressed as a ‘prey’. The HSP70/A18 interaction directs the transcription of the luc reporter gene, while in the same assay a control protein/aptamer couple directs the transcription of the ruc reporter. A small molecule can be considered as ‘hit candidate’ when it inhibits the interaction between HSP70 and A18 (i.e. decreases the luciferase signal), but not the control interaction (i.e. no or little change in the ruc signal). Molecules were screened at a concentration of 10 μM and then hit candidates were confirmed by dose-response assays, following the standard protocol (Rerole A L, et al. Cancer Res 20119;71:484-495).
A high-throughput screening assay, AptaScreen™ (developed by Aptanomics SA; ^22,23), was performed by the Company Imaxio (Lyon, France) on a library of almost 60,000 small molecules including most of the marketed drugs. The AptaScreen™ assay is based on an automated dual luminescence (luc and ruc reporter genes) yeast two-hybrid assay, with HSP70 expressed as a ‘bait’ and a peptide aptamer (A18), the inventors previously isolated that bound to the ATP domain of HSP70 expressed as a ‘prey’ (Rerole A L, et al. Cancer Res 20119;71:484-495). A small molecule can be considered as ‘hit candidate’ when it inhibits the interaction between HSP70 and A18 (i.e. decreases the luciferase signal). Molecules were screened at a concentration of 10 μM. Eight molecules (hit candidates) were initially identified. From the dose-response studies, three of them were retained on the basis of their specificity and high inhibitory activity against A18 binding to HSP70 (Table 1 and 2).

recombinant HSP70 = recombinant HSP70 (Homo sapiens, UniProt P0DMV8); assay: HSP70 chaperone activity, protein thermolability (aggregation) assay; format: biochemical; settings: 1 μM, heat shock 55° C., 1 h, recombinant HSP70 10 ng
Method: FIG. 2: Small molecules hits A, B and C inhibit HSP70 chaperone activity. A) Protein aggregation was determined in the presence or absence of recombinant HSP70 (10 ng). When indicated A18 or molecules A, B and C were added (1 μM). B) Protein aggregation was determined in the presence or absence of recombinant HSP70, HSC70 or HSP90 (10 ng).
When indicated A18 or molecules A, B and C were added (1 μM). A0, a non-relevant peptide aptamer was used here as a negative control. Values are normalized for each HSP. 100% chaperone effect being the inhibition of protein aggregation induced by addition of the recombinant chaperones.
HSP70 chaperone activity was evaluated with a protein thermolability assay. HSF1−/− MEFs extracts were incubated 20 minutes on ice in lysis buffer (50 mM HEPES, 150 mM NaCl, 5 mM EDTA, 0.1% NP40) supplemented with protease inhibitors (Roche, France). […]
Cellular extracts, to which recombinant HSP70, HSP90 or HSC70 were added with or without the small molecules to test, were diluted to a final concentration of 2 mg. mL-1 in pH 7 Tris-HCl buffer and heated at 55° C. during 1 hour. After g−16,000 centrifugation at 4° C. during 10 minutes, supernatant native protein quantity was determined by Lowry method (Dc Assay Kits, Bio-Rad). This final protein concentration was then compared to the initial protein concentration in supernatants to quantify denatured proteins. […]

HSP70/A18 interaction [4] = molecular target: T1, HSP70/A18 interaction; assay: Ability to block HSP70/A18 interaction (Biacore); format: binding; settings: block of HSP70/A18 interaction; read-out: Activity profil/50% effective concentration (EC50)
Text: Table 2. Selected “Hits” with high inhibitory activity against A18 binding to HSP70. Their chemical structure is shown as well as their ability to block HSP70/A18 interaction (Biacore).

T1 sequence (P0DMV8 whole entry): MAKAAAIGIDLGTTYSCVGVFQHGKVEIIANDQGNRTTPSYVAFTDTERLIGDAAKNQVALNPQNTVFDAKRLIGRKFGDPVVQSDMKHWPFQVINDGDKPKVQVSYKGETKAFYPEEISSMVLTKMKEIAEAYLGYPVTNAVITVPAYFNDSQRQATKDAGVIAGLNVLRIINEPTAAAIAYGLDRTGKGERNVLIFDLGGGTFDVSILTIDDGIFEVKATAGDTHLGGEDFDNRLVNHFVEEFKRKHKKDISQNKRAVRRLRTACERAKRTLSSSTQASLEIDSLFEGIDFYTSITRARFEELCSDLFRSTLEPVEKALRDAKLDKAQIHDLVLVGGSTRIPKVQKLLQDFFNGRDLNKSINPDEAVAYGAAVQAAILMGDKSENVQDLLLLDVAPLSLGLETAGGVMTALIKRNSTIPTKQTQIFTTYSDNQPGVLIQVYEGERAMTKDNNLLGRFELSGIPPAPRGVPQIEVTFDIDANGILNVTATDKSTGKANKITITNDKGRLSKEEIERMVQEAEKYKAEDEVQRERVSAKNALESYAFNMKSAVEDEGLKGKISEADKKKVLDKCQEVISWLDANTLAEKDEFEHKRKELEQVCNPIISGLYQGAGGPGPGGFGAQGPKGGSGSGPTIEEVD
recombinant HSP70, sequence (P0DMV8 whole entry): as above

Row | Solubility (Solubility (statement)) | HSP70 specificity (HSP70/A18 interaction [3]) | IC50 (HSP70/A18 interaction [3]) | Confirmation inhibition (HSP70/A18 interaction [3]) | inhibition at 10 µM (HSP70/A18 interaction [3]) | Inhibition of HSP70 chaperone activity (recombinant HSP70) | EC50 (HSP70/A18 interaction [4]) | Compound | Cell death induced by cisplatin [1] | Cell death induced by cisplatin [2]
1 | hardly soluble | YES | 0.2 µM | 59 | 105% | much more important inhibition | 0.2 µM | CCOc1ccc(C)cc1S(=O)(=O)n1nnc2ccccc21 [Molecule B] | most important effect | most important effect
2 |  | YES | 19.6 µM | 34 | 105% | only partially blocked | 19.6 µM | O=C1N=C(N2CCCCC2)S/C1=C\c1ccccc1F [Molecule A] |  | 
